From ChEMBL document CHEMBL2424588, “Four-membered heterocycles-containing 4-anilino-quinazoline derivatives as epidermal growth factor receptor (EGFR) kinase inhibitors” (Bioorg Med Chem Lett, 2013)
Values after ≈ are worked out from the molar mass of the structure shown.

How the values were obtained:
[1] = biological target: Epidermal growth factor receptor (Homo sapiens, UniProt P00533); test: Inhibition of wild type EGFR (unknown origin) after 24 hrs by fluorescence assay
A549 = test: Cytotoxicity against human A549 cells after 72 hrs by CCK-8 assay; type: functional, cell-based; conditions: A549, 72 h
[2] = Cytotoxicity against human HCC827 cells after 72 hrs by CCK-8 assay; type: functional, cell-based; conditions: HCC827, 72 h
[3] = Aqueous solubility of the compound at 20 degC; type: physicochemical; conditions: water

Sequence of Epidermal growth factor receptor (P00533 whole entry): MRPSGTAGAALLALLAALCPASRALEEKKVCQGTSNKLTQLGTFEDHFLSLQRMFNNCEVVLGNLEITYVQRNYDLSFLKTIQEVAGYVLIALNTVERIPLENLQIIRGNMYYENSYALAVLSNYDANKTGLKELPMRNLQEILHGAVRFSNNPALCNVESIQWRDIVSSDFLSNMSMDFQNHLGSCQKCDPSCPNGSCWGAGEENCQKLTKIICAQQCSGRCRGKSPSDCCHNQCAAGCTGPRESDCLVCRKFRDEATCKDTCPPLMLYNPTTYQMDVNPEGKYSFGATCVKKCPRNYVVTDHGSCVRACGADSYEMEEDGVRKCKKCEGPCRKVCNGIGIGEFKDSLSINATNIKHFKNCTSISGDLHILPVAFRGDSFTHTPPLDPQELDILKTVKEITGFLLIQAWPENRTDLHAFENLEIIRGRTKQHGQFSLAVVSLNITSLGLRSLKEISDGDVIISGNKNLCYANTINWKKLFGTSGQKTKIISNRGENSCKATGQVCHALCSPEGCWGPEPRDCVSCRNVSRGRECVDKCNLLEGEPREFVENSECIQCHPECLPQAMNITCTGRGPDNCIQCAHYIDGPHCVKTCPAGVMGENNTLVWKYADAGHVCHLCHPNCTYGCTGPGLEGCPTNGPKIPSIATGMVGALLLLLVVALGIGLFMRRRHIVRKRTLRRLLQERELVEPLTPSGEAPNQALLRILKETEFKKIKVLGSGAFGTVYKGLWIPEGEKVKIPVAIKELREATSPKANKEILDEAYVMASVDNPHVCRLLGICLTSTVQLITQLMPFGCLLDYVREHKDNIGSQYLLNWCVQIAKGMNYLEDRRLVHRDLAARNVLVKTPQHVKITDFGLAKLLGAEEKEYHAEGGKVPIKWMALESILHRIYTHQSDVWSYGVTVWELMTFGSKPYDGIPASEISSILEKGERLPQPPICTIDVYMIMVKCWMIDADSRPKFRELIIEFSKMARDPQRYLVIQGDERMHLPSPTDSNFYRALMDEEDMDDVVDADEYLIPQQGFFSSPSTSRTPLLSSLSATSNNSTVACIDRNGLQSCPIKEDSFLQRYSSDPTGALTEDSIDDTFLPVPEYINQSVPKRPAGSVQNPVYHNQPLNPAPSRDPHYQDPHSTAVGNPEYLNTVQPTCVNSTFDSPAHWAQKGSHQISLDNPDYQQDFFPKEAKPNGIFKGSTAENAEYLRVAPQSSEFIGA

| Compound | IC50 [1] [nM] | solubility [3] [µg/mL] | IC50 (A549) [nM] | IC50 [2] [nM] |
| --- | --- | --- | --- | --- |
| COc1cc2ncnc(Nc3ccc(F)c(Cl)c3)c2cc1OCCN1CC2(C1)CS(=O)(=O)C2 | 158 | < 1 | > 50000 | 154 |
| COc1cc2ncnc(Nc3ccc(F)c(Cl)c3)c2cc1OCCCN1CCC2(COC2)C1 | – | 33.8 (≈ 71.5 µM) | > 50000 | 28 |
| COc1cc2ncnc(Nc3ccc(F)c(Cl)c3)c2cc1OCCN1CC2(CCO2)C1 | 190 | < 1 | > 50000 | 23 |
| COc1cc2ncnc(Nc3ccc(F)c(Cl)c3)c2cc1OCCN1CC2(CSC2)C1 | 52 | < 1 | 4800 | 51 |
| COc1cc2ncnc(Nc3ccc(F)c(Cl)c3)c2cc1OCCN1CC(OC)C1 | 94 | – | > 50000 | 64 |
| COc1cc2ncnc(Nc3ccc(F)c(Cl)c3)c2cc1OCCCN1CC2(COC2)C1 | 56 | 28.3 (≈ 61.7 µM) | 31800 | 69 |
| COc1cc2ncnc(Nc3ccc(F)c(Cl)c3)c2cc1OCCCN1CC2(CCO2)C1 | 36 | 1.2 (≈ 2.61 µM) | 25700 | 39 |
| COc1cc2ncnc(Nc3ccc(F)c(Cl)c3)c2cc1OCCCN1CC2(CSC2)C1 | 48 | 25.6 (≈ 53.9 µM) | 9500 | 50 |
| COc1cc2ncnc(Nc3ccc(F)c(Cl)c3)c2cc1OCCCN1CCOCC1 [GEFITINIB] | – | 2.1 (≈ 4.7 µM) | – | – |

The remaining compounds from weak to strong by IC50 [1], led by results:

| IC50 [1] [nM] | solubility [3] [µg/mL] | Compound | IC50 (A549) [nM] | IC50 [2] [nM] |
| --- | --- | --- | --- | --- |
| 34 | – | COc1cc2ncnc(Nc3ccc(F)c(Cl)c3)c2cc1OCCCN1CC(OC)C1 | 25100 | 42 |
| 26 | – | COc1cc2ncnc(Nc3ccc(F)c(Cl)c3)c2cc1OCCN1CC(O)C1 | > 50000 | 116 |
| 25 | – | COc1cc2ncnc(Nc3ccc(F)c(Cl)c3)c2cc1OCCCN1CC(O)C1 | > 50000 | 352 |
| 24 | 72.3 (≈ 143 µM) | COc1cc2ncnc(Nc3ccc(F)c(Cl)c3)c2cc1OCCCN1CC2(C1)CS(=O)(=O)C2 | 25200 | 389 |
| 16 | 1.4 (≈ 3.15 µM) | COc1cc2ncnc(Nc3ccc(F)c(Cl)c3)c2cc1OCCN1CC2(COC2)C1 | > 50000 | 16 |
